The source of these data is ChEMBL document CHEMBL1136438, “Inhibitors of hepatitis C virus NS3.4A protease 1. Non-charged tetrapeptide variants” (Bioorg Med Chem Lett, 2003).

*1 amine or outer side, *2 acyl side, *3 side chain or, on linkers, in order; H or OH if unused. Where a SMILES comes first, the peptide text is derived from it. Side-chain parts run from the residue outwards. [ ]: non-standard residue; d: D form. The star is where a group is joined. ξ: configuration not given here. Pro(4R-OPh) = O=C(O)[C@@H]1C[C@@H](Oc2ccccc2)CN1; CH2(1-naphthyl) = c1ccc2c(C*)cccc2c1; NH(1-naphthyl) = c1ccc2c(N*)cccc2c1; Adipoyl = O=C(CCCCC(=O)[*:2])[*:1]; 1Naphthoyl = O=C(c1cccc2ccccc12)*; 2Naphthoyl = O=C(c1ccc2ccccc2c1)*; Pyrazinecarbonyl = O=C(c1cnccn1)*; Hyp = O=C(O)[C@@H]1C[C@@H](O)CN1; ξAla(CF3) = NC(CC(F)(F)F)C(=O)O; Nva = CCC[C@H](N)C(=O)O; X1 = c1ccc2cc(C*)ccc2c1; X2 = Clc1ccc(Cl)c(N*)c1; X4 = COc1ccc(OC)c(N*)c1; 2Abz = Nc1ccccc1C(=O)O; Abu = CC[C@H](N)C(=O)O; X3 = c1ccc2c(c1)CCCN2*; Aib = CC(C)(N)C(=O)O; CO = O=C([*:1])[*:2]; Bz = O=C(c1ccccc1)*; NHPh = c1ccc(N*)cc1; Bn = c1ccc(C*)cc1 Bounds are passed on as bounds.

For experiment [1], the target named is Hepatitis C virus serine protease, NS3/NS4A (Hepatitis C virus, UniProt D2K2A8+A3EZI9). Kind of experiment: (§1) Inhibition of HCV (Hepatitis C Virus) NS3-4A protease. It counts as protein-complex assay, Hepacivirus hominis.
Sequence of Hepatitis C virus serine protease, NS3/NS4A (Hepatitis C virus, UniProt D2K2A8+A3EZI9) (D2K2A8 whole entry): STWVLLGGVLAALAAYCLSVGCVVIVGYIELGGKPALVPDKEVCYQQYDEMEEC
Sequence of Hepatitis C virus serine protease, NS3/NS4A (Hepatitis C virus, UniProt D2K2A8+A3EZI9) (A3EZI9 whole entry): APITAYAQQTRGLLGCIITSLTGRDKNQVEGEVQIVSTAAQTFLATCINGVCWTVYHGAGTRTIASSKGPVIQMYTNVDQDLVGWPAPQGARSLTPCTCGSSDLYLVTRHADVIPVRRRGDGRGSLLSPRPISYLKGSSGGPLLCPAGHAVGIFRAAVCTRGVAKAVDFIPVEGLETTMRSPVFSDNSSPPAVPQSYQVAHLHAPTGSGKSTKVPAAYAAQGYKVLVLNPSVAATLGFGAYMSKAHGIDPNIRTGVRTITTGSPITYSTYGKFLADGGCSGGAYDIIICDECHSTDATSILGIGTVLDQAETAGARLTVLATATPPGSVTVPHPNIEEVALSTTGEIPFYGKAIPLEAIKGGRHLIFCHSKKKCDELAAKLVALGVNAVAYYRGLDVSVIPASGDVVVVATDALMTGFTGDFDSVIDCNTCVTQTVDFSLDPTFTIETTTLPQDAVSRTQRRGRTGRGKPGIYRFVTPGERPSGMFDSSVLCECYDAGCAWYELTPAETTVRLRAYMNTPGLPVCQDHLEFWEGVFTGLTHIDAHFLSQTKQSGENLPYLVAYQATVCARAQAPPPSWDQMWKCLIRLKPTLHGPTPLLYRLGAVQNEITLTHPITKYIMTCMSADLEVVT
In experiment [2] the target is Hepatitis C virus serine protease, NS3/NS4A (Hepatitis C virus, UniProt A3EZI9+D2K2A8). The description is as §1. The experiment is classed as protein-complex assay, Hepacivirus hominis.
Sequence of Hepatitis C virus serine protease, NS3/NS4A (Hepatitis C virus, UniProt A3EZI9+D2K2A8) (D2K2A8 whole entry): as the sequence (D2K2A8 whole entry) above
Sequence of Hepatitis C virus serine protease, NS3/NS4A (Hepatitis C virus, UniProt A3EZI9+D2K2A8) (A3EZI9 whole entry): as the sequence (A3EZI9 whole entry) above

On to `CC[C@@H](C=O)NC(=O)[C@@H]1C[C@@H](Oc2cccc3cccnc23)CN1C(=O)[C@@H](NC(=O)[C@@H](NC(=O)c1cnccn1)C(C)C)C(C)C`, for which the Ki in experiment [1] was greater than 50 µM.

The compound `CC[C@@H](C=O)NC(=O)[C@@H]1C[C@@H](OCc2cccc3ccccc23)CN1C(=O)[C@@H](NC(=O)[C@@H](NC(=O)c1cnccn1)C(C)C)C(C)C` (Pyrazinecarbonyl-VV[Hyp](CH2(1-naphthyl))[Abu]-aldehyde) yielded a Ki in experiment [1] of 2.9 µM.

With `CC[C@@H](C=O)NC(=O)[C@@H]1C[C@@H](OCc2ccccc2)CN1C(=O)[C@@H](NC(=O)[C@@H](NC(=O)c1cnccn1)C(C)C)C(C)C` (Pyrazinecarbonyl-VV[Hyp](Bn)[Abu]-aldehyde), in experiment [2], the inhibition constant (Ki) is 12 µM.

In the case of `CC[C@@H](C=O)NC(=O)[C@@H]1C[C@@H](OCc2ccc3ccccc3c2)CN1C(=O)[C@@H](NC(=O)[C@@H](NC(=O)c1cnccn1)C(C)C)C(C)C` (Pyrazinecarbonyl-VV[Hyp](X1)[Abu]-aldehyde), in experiment [1], the affinity, expressed as Ki, was 1.7 µM.

For `CCC[C@@H](C=O)NC(=O)[C@@H]1C[C@@H](OCc2ccccc2)CN1C(=O)[C@@H](NC(=O)[C@@H](NC(=O)c1cnccn1)C(C)C)C(C)C` (Pyrazinecarbonyl-VV[Hyp](Bn)[Nva]-aldehyde), the inhibition constant Ki in experiment [2] came out at 3.8 µM.

As for `CC(C)[C@H](NC(=O)c1cnccn1)C(=O)N[C@H](C(=O)N1C[C@H](OCc2ccccc2)C[C@H]1C(=O)NC(C)(C)C=O)C(C)C` (Pyrazinecarbonyl-VV[Hyp](Bn)[Aib]-aldehyde), in experiment [2], the Ki is greater than 50 µM.

In experiment [1], `CC[C@@H](C=O)NC(=O)[C@@H]1C[C@@H](OC(=O)N2CCCc3ccccc32)CN1C(=O)[C@@H](NC(=O)[C@@H](NC(=O)c1cnccn1)C(C)C)C(C)C` (Pyrazinecarbonyl-VV[Hyp]([CO-X3])[Abu]-aldehyde) showed an inhibition constant Ki of 0.89 µM.

Consider `CC[C@@H](C=O)NC(=O)[C@@H]1C[C@@H](OC(=O)c2ccc3ccccc3c2)CN1C(=O)[C@@H](NC(=O)[C@@H](NC(=O)CCCCC(=O)O)C(C)C)C(C)C` (Adipoyl-VV[Hyp](2Naphthoyl)[Abu]-aldehyde), for which the Ki in experiment [1] was found to be 0.11 µM.

Consider `CC[C@@H](C=O)NC(=O)[C@@H]1C[C@@H](Oc2ccccc2)CN1C(=O)[C@@H](NC(=O)[C@@H](NC(=O)c1cnccn1)C(C)C)C(C)C` (Pyrazinecarbonyl-VV[Pro(4R-OPh)][Abu]-aldehyde), for which the inhibitory constant (Ki) in experiment [1] stood at 3.9 µM.

Take `CC[C@@H](C=O)NC(=O)[C@@H]1C[C@@H](Oc2ccc3ccccc3c2)CN1C(=O)[C@@H](NC(=O)[C@@H](NC(=O)c1cnccn1)C(C)C)C(C)C`: affinity in experiment [1] was put at a Ki of 7.4 µM.

In turn, `CC[C@@H](C=O)NC(=O)[C@@H]1C[C@@H](OC(=O)Nc2cccc3ccccc23)CN1C(=O)[C@@H](NC(=O)[C@@H](NC(=O)c1cnccn1)C(C)C)C(C)C` (Pyrazinecarbonyl-VV[Hyp]([CO-NH(1-naphthyl)])[Abu]-aldehyde) yielded a Ki in experiment [1] of 12.5 µM.

`CC[C@@H](C=O)NC(=O)[C@@H]1C[C@@H](OC(=O)Nc2ccccc2C(=O)OC)CN1C(=O)[C@@H](NC(=O)[C@@H](NC(=O)c1cnccn1)C(C)C)C(C)C` (Pyrazinecarbonyl-VV[Hyp]([CO-2Abz-OMe])[Abu]-aldehyde) displayed a Ki in experiment [1] of 2.5 µM.

In turn, `CC[C@@H](C=O)NC(=O)[C@@H]1C[C@@H](OC(=O)c2ccc3ccccc3c2)CN1C(=O)[C@@H](NC(=O)[C@@H](NC(=O)c1cnccn1)C(C)C)C(C)C` (Pyrazinecarbonyl-VV[Hyp](2Naphthoyl)[Abu]-aldehyde) showed a Ki in experiment [1] of 0.4 µM.

For the compound `CC[C@@H](C=O)NC(=O)[C@@H]1C[C@@H](Oc2cccc3ccccc23)CN1C(=O)[C@@H](NC(=O)[C@@H](NC(=O)c1cnccn1)C(C)C)C(C)C`, the Ki in experiment [1] was found to be 2.1 µM.

`CC(C)[C@H](NC(=O)c1cnccn1)C(=O)N[C@H](C(=O)N1C[C@H](OCc2ccccc2)C[C@H]1C(=O)NC(C=O)CC(F)(F)F)C(C)C` (some centres not stated) (Pyrazinecarbonyl-VV[Hyp](Bn)[ξAla(CF3)]-aldehyde) showed an inhibition constant Ki in experiment [2] of 3.1 µM.

On to `CC[C@@H](C=O)NC(=O)[C@@H]1C[C@@H](OC(=O)c2cccc3ccccc23)CN1C(=O)[C@@H](NC(=O)[C@@H](NC(=O)c1cnccn1)C(C)C)C(C)C` (Pyrazinecarbonyl-VV[Hyp](1Naphthoyl)[Abu]-aldehyde), for which affinity in experiment [1] was put at a Ki of 1.9 µM.

For the compound `COC[C@@H](C=O)NC(=O)[C@@H]1C[C@@H](OCc2ccccc2)CN1C(=O)[C@@H](NC(=O)[C@@H](NC(=O)c1cnccn1)C(C)C)C(C)C` (Pyrazinecarbonyl-VV[Hyp](Bn)S(Me)-aldehyde), in experiment [2], the inhibition constant Ki is greater than 50 µM.

In experiment [1], `CC[C@@H](C=O)NC(=O)[C@@H]1C[C@@H](OC(=O)Nc2ccccc2)CN1C(=O)[C@@H](NC(=O)[C@@H](NC(=O)c1cnccn1)C(C)C)C(C)C` (Pyrazinecarbonyl-VV[Hyp]([CO-NHPh])[Abu]-aldehyde) yielded a Ki of 22.3 µM.

Turning to `CC[C@@H](C=O)NC(=O)[C@@H]1C[C@@H](OC(=O)Nc2cc(OC)ccc2OC)CN1C(=O)[C@@H](NC(=O)[C@@H](NC(=O)c1cnccn1)C(C)C)C(C)C` (Pyrazinecarbonyl-VV[Hyp]([CO-X4])[Abu]-aldehyde), affinity in experiment [1] was put at a Ki of 7.9 µM. This Ki is about 2.8-fold lower than that of the compound before.

In experiment [2], `CC[C@@H](C=O)NC(=O)[C@@H]1C[C@@H](OCc2ccccc2)CN1C(=O)[C@@H](NC(=O)[C@@H](NC(=O)[C@H](CC(=O)O)NC(=O)[C@H](CCC(=O)O)NC(C)=O)C(C)C)C(C)C` (Ac-EDVV[Hyp](Bn)[Abu]-aldehyde) yielded an inhibition constant Ki of 0.89 µM. That is a sub-micromolar value.

As to `CC[C@@H](C=O)NC(=O)[C@@H]1C[C@@H](OC(=O)c2ccccc2)CN1C(=O)[C@@H](NC(=O)[C@@H](NC(=O)c1cnccn1)C(C)C)C(C)C` (Pyrazinecarbonyl-VV[Hyp](Bz)[Abu]-aldehyde), the Ki in experiment [1] was 5.8 µM. This lies in the single-digit micromolar range.

On to `CC[C@@H](C=O)NC(=O)[C@@H]1C[C@@H](OC(=O)Nc2cc(Cl)ccc2Cl)CN1C(=O)[C@@H](NC(=O)[C@@H](NC(=O)c1cnccn1)C(C)C)C(C)C` (Pyrazinecarbonyl-VV[Hyp]([CO-X2])[Abu]-aldehyde), for which the Ki in experiment [1] was determined as 3.2 µM.
